Results reported in paper PMC10095864, “Targeting HIV-1 Reverse Transcriptase Using a Fragment-Based Approach” (Molecules, 2023).
Where two headings read alike, the source gives them in different places.

Experiments:
[1] = target: T1, recombinant WT HIV-1 RT (Human immunodeficiency virus type 1 group M subtype B, UniProt P03367); assay: biochemical; conditions: for IC50: RT Inhibition—IC50 ± SEM, WT RT DDDP activity; for fold improvement on parent compound B-1: IC50 vs B-1 IC50 >1000 μM in the radioactive RT assay; for Ligand efficiency (LE): binding to WT RT, LE = −1.4(logIC50)/N
T1 construct: The p66/p51 HIV-1 RT heterodimer engineered with a N-terminal histidine tag; His tag (histidine tag) (N); made in house; host or cells: Escherichia coli strain M15 (vector pRT6H-PR)
Procedure: (§1) The inhibitory activity of all compounds was evaluated in vitro in assays that measure the DNA-dependent DNA polymerase (DDDP) activity of HIV-1 RT. Compounds were tested against recombinant WT and drug-resistant HIV-1 RT mutants (K103N, Y181C or K103N/Y181C). […] The IC50 value of nevirapine was determined in parallel to control for the performance of the assay. […] These RT mutations either reduce the rate of entry of NNRTIs to the binding pocket (K103N) or remove aromatic interactions that favor binding (Y181C). Initially, compound IC50 values were determined in an assay that quantifies DDDP activity mediated by HIV-1 RT using a radiolabeled ^33PdTTP substrate and more recently using a nonradioactive PicoGreen-based spectrophotometric assay.
(§2) Recombinant HIV-1 RT: The p66/p51 HIV-1 RT heterodimer engineered with a N-terminal histidine tag was expressed from the pRT6H-PR vector (provided by Nicolas Sluis-Cremer) which is based on pRT6H-PROT [37], except that the RT coding region is derived from the infectious molecular clone xxLAI [38]. This xxLAI clone contains the HIV-1LAI backbone and is engineered with silent mutations introducing Xma I and Xba I sites in the RT coding region at nucleotide positions 40–45 and 1470 to 1475, respectively. pRT6H-PR expressing the NNRTI drug-resistant mutations K103N, Y181C and K103N/Y181C were generated by subcloning Xma I/Xba I fragments in xxLAI harboring the desired NNRTI mutations (Giacobbi NS and Sluis-Cremer 2017 AAC) into the corresponding restriction sites in the RT coding region of p6HRT-PR. RT was expressed in Escherichia coli strain M15 and purified using Ni-NTA chromatography as previously described. RT concentrations were determined spectrophotometrically at 280 nm using an extinction coefficient (e280) of 260, 450 M^−1 cm^−1.
(§3) Nevirapine was included in assays as a positive control for inhibiting RT polymerase activity. The DDDP assay was performed by first adding 25 ng of HIV-1 RT to test compound in 96-well plates followed by initiating RT polymerase activity by adding 200 ng of activated calf thymus (ACT) DNA (Sigma Aldrich), 0.2 µCi ^33P-α-dTTP (Perkin Elmer), 50 mM Tris-HCl pH 7.8 50 mM KCl, […], 50 µM dNTP mix (Bioline), 0.1 mg/mL bovine serum albumin (New England Biolabs), 0.01% IGEPAL (Sigma) and 1 mM dithiothreitol. Reactions contained 2.5% dimethyl sulfoxide (DMSO). Following incubation at 37 °C for 10 min, samples from duplicate wells were applied to Whatman DE81 ion-exchange paper (GE Healthcare); dried membranes were washed in 2X saline-sodium citrate (SSC) buffer; and incorporated counts were quantified using an FLP-2000 phosphorimager (Fujifilm) or Typhoon Trio Phosphorimager (GE Healthcare) as published. Dose–response curves were generated using PRISM GraphPad version 8 by plotting the log transformed drug concentrations against percentage inhibition of DDDP activity compared to the no drug control using non-linear regression analysis.
(§4) Non-radioactive DDDP Assay: DDDP assays were also performed using a PicoGreen based spectrophotometric assay to detect double-stranded DNA synthesized by recombinant HIV-1 RT [15]. Assays were performed as described for the […] DDDP assay except that instead of ACT, the reaction contained 40 nM of a template/primer comprising a 200 nt DNA template (5′-[…] […]-3′) annealed to a 18 nucleotide DNA primer (5′-[…]-3′), 50 mM Tris-HCl pH 7.8, 50 mM KCl, 10 mM MgCl2 and 50 µM dNTP mix.

[2] = target: T2, HIV-1 RT K103N/Y181C mutant (Human immunodeficiency virus type 1 group M subtype B, UniProt P03367, K702N/Y780C); assay: DDDP activity assay, K103N/Y181C RT mutant; assay type: biochemical
T2 construct: The p66/p51 HIV-1 RT heterodimer engineered with a N-terminal histidine tag; His tag (histidine tag) (N); made in house; host or cells: Escherichia coli strain M15 (vector pRT6H-PR)
Procedure: as §1, §2, §3, §4

[3] = target: T3, His-tagged HIV-1 RT WT (Human immunodeficiency virus type 1 group M subtype B, UniProt P03367); assay: Surface plasmon resonance, WT RT; assay type: binding
T3 construct: The p66/p51 HIV-1 RT heterodimer engineered with a N-terminal histidine tag; His tag (histidine tag) (N); made in house; host or cells: Escherichia coli strain M15 (vector pRT6H-PR)
Procedure: (§5) Compound binding to recombinant HIV-1 RT was measured by surface plasmon resonance (SPR). SPR is an optical biosensor detection method that involves passing an analyte (often a fragment) in a buffer solution over a gold surface chip with an immobilized protein (RT enzyme) and detecting the change in plasmon resonance angle which is dependent on the refractive index of the medium near the surface. As compounds bind to the target protein, the refractive index changes proportionally to the extent of binding. This can then be used to measure the association and dissociation kinetics of binding as well as the compound’s affinity for binding.
(§6) SPR assays were performed on a Biacore S200 (GE Healthcare). His-tagged RT (WT, K103N, Y181C or K103N/Y181C) was immobilized on the surface of a Biacore compatible NIHC 1500M (Xantec) chip according to manufacturer’s instructions. Following 3 injections 300 s each of 0.5 M EDTA, the chip surface was activated with a 120 s injection of 5 mM NiCl2 followed by a 2100 s injection of 130 nM RT. The final immobilization level of RT was typically 14,000–27,000 RU. SPR experiments were carried out at 25 °C using a flow rate of 50 µL/min in running buffer. The running buffer was 1.053 × (HBS pH 7.4 + 50 µM EDTA + 0.005% Tween-20). Compounds were provided as 200 mM stocks and diluted in running buffer to obtain the concentrations required for dose-response studies (0, 6.25, 12.5, 25, 50, 100 and 200 µM). Raw sensorgram data were analyzed using Biacore S200 Evaluation Software. Dose-response determinations were evaluated using a 1:1 binding model. KD values were determined by Biacore S200 Evaluation Software Version 1.0. assuming 1:1 binding. For compounds approaching saturation, Rmax was floated. For compounds with insufficient curvature, Rmax was fixed based on a control. Errors were determined as the standard error in the dose-response fit, as calculated by Biacore S200 Evaluation Software.

[4] = target: T4, HIV-1 RT Y181C mutant (Human immunodeficiency virus type 1 group M subtype B, UniProt P03367, Y780C); assay: DDDP activity assay, Y181C RT mutant; assay type: biochemical; conditions: PicoGreen or 33P radiolabeled assay, n ≥ 2, read-out: RT Inhibition—IC50 ± SEM, Y181C
T4 construct: The p66/p51 HIV-1 RT heterodimer engineered with a N-terminal histidine tag; His tag (histidine tag) (N); made in house; host or cells: Escherichia coli strain M15 (vector pRT6H-PR)
Procedure: as §1
Recombinant HIV-1 RT: The p66/p51 HIV-1 RT heterodimer engineered with a N-terminal histidine tag was expressed from the pRT6H-PR vector (provided by Nicolas Sluis-Cremer) which is based on pRT6H-PROT [37], except that the RT coding region is derived from the infectious molecular clone xxLAI [38]. […] RT concentrations were determined spectrophotometrically at 280 nm using an extinction coefficient (e280) of 260, 450 M^−1 cm^−1.
Nevirapine was included in assays as a positive control for inhibiting RT polymerase activity. […] Following incubation at 37 °C for 10 min, samples from duplicate wells were applied to Whatman DE81 ion-exchange paper (GE Healthcare); dried membranes were washed in 2X saline-sodium citrate (SSC) buffer; and incorporated counts were quantified using an FLP-2000 phosphorimager (Fujifilm) or Typhoon Trio Phosphorimager (GE Healthcare) as published. […]

[5] = target: T5, His-tagged HIV-1 RT K103N (Human immunodeficiency virus type 1 group M subtype B, UniProt P03367, K702N); assay: Surface plasmon resonance, K103N RT; conditions: ± standard error of dose–response fit, n = 1; NB = no binding observed; read-out: SPR—KD, K103N
T5 construct: The p66/p51 HIV-1 RT heterodimer engineered with a N-terminal histidine tag; His tag (histidine tag) (N); made in house; host or cells: Escherichia coli strain M15 (vector pRT6H-PR)
Procedure: as §5, §6

[6] = WT, PicoGreen or 33P radiolabeled assay, value not marked as PicoGreen, n ≥ 2
[7] = WT (PicoGreen assay), nonradioactive PicoGreen assay
[8] = read-out: SPR—KD, WT, ± standard error of dose–response fit, n = 1, NB = no binding observed

CCOC(=O)c1cnn2ccc(C(=O)OC)cc12 [compound 15, 3-Ethyl 5-Methylpyrazolo[1,5-a]pyridine-3,5-dicarboxylate]
IC50 [1, 6]: > 1000 µM

CCCC#Cc1cccn2ncc(C(=O)OCC)c12 [compound 28, Ethyl 4-(pent-1-yn-1-yl)pyrazolo[1,5-a]pyridine-3-carboxylate]
fold improvement on parent compound B-1 [1]: > 20 fold | IC50 [1, 6]: 53 ± 4 µM | Ligand efficiency (LE) [1]: 0.32 kcal/mol/HA | IC50 [2]: 105 ± 6 µM | Kd [3]: 275 ± 9 µM

CCOC(=O)c1cnn2ccc(NC(=O)OC(C)(C)C)cc12 [compound 16, Ethyl 5-((Tert-butoxycarbonyl)amino)pyrazolo[1,5-a]pyridine-3-carboxylate]
IC50 [1, 6]: > 1000 µM

CCOC(=O)c1cnn2cc(C)ccc12 [compound 4, Ethyl 6-Methylpyrazolo[1,5-a]pyridine-3-carboxylate]
IC50 [1, 6]: > 1000 µM

CCOC(=O)c1cnn2cccc(C#CCCO)c12 [compound 25, Ethyl 4-(4-Hydroxybut-1-yn-1-yl)pyrazolo[1,5-a]pyridine-3-carboxylate]
IC50 [1, 6]: > 1000 µM

CCOC(=O)c1cnn2cccc(C)c12 [compound 2, Ethyl 4-Methylpyrazolo[1,5-a]pyridine-3-carboxylate]
IC50 [1, 6]: 433 ± 166 µM | Ligand efficiency (LE) [1]: 0.31 kcal/mol/HA | IC50 [4]: > 333 µM | Kd [3]: 347 ± 23 µM

CCOC(=O)c1cnn2cc(Br)cc(OC)c12 [compound 13, Ethyl 6-Bromo-4-methoxypyrazolo[1,5-a]pyridine-3-carboxylate]
IC50 [1, 6]: > 1000 µM

CCOC(=O)c1cnn2ccc(C)cc12 [compound 3, Ethyl 5-Methylpyrazolo[1,5-a]pyridine-3-carboxylate]
IC50 [1, 6]: > 1000 µM

CCOC(=O)c1cnn2c(C)ccc(F)c12 [compound 11, Ethyl 4-Fluoro-7-methylpyrazolo[1,5-a]pyridine-3-carboxylate]
IC50 [1, 7]: > 1000 µM | Kd [3, 8]: > 200 µM

CCOC(=O)c1cnn2cccc(C#CCN(C)C)c12 [compound 24, Ethyl 4-(3-(Dimethylamino)prop-1-yn-1-yl)pyrazolo[1,5-a]pyridine-3-carboxylate]
IC50 [1, 6]: > 1000 µM

CCNC(=O)c1cnn2cccc(Br)c12 [compound 20, 4-Bromo-N-ethylpyrazolo[1,5-a]pyridine-3-carboxamide]
IC50 [1, 6]: > 1000 µM

O=C(NCCc1ccc(O)cc1)c1cnn2cccc(Br)c12 [compound 22, 4-Bromo-N-(4-hydroxyphenethyl)pyrazolo[1,5-a]pyridine-3-carboxamide]
IC50 [1, 7]: 111 µM

CCCOC(=O)c1cnn2cccc(Br)c12 [compound 19, Propyl 4-bromopyrazolo[1,5-a]pyridine-3-carboxylate]
IC50 [1, 7]: > 1000 µM

CCOC(=O)c1cnn2c(C)ccc(Br)c12 [compound 9, Ethyl 4-Bromo-7-methylpyrazolo[1,5-a]pyridine-3-carboxylate]
IC50 [1, 7]: 155 ± 19 µM | Ligand efficiency (LE) [1]: 0.33 kcal/mol/HA | Kd [3, 8]: > 200 µM

COC(=O)c1cnn2cccc(Br)c12 [compound 18, Methyl 4-Bromopyrazolo[1,5-a]pyridine-3-carboxylate]
IC50 [1, 7]: > 1000 µM

CCOC(=O)c1cnn2c(C)cc(Cl)cc12 [compound 14, Ethyl 5-Chloro-7-methylpyrazolo[1,5-a]pyridine-3-carboxylate]
IC50 [1, 6]: > 1000 µM | Kd [3, 8]: > 200 µM

Cc1ccnc2c1NC(=O)c1cccnc1N2C1CC1 [Nevirapine, nevirapine, reference compound]
IC50 [1, 7]: 0.44 ± 0.03 µM

CCOC(=O)c1cnn2c(C)cccc12 [compound 5, Ethyl 7-Methylpyrazolo[1,5-a]pyridine-3-carboxylate]
IC50 [1, 6]: 470 ± 95 µM | Ligand efficiency (LE) [1]: 0.31 kcal/mol/HA | IC50 [4]: > 333 µM | Kd [3, 8]: > 200 µM

C#Cc1cccn2ncc(C(=O)OCC)c12 [compound 29, Ethyl 4-ethynylpyrazolo[1,5-a]pyridine-3-carboxylate]
fold improvement on parent compound B-1 [1]: > 20 fold | IC50 [1, 6]: 27 ± 26 µM | Ligand efficiency (LE) [1]: 0.40 kcal/mol/HA | IC50 [2]: 43 ± 14 µM | Kd [3]: 395 ± 35 µM

CCOC(=O)c1cnn2cccc(C#CCCCCCO)c12 [compound 26, Ethyl 4-(7-Hydroxyhept-1-yn-1-yl)pyrazolo[1,5-a]pyridine-3-carboxylate]
fold improvement on parent compound B-1 [1]: > 20 fold | IC50 [1, 6]: 24 ± 6 µM | Ligand efficiency (LE) [1]: 0.30 kcal/mol/HA | IC50 [2]: 35 ± 7 µM | Kd [3]: 173 ± 9 µM | Kd [5]: 233 ± 22 µM

CCOC(=O)c1cnn2cc(OC)cc(Br)c12 [compound 10, Ethyl 4-Bromo-6-methoxypyrazolo[1,5-a]pyridine-3-carboxylate]
IC50 [1, 7]: 315 ± 19 µM | Ligand efficiency (LE) [1]: 0.29 kcal/mol/HA | Kd [3]: 1570 ± 105 µM | Kd [5]: 757 ± 81 µM

CCOC(=O)c1cnn2cc(Br)ccc12 [compound 7, Ethyl 6-Bromopyrazolo[1,5-a]pyridine-3-carboxylate]
IC50 [1, 6]: > 1000 µM

O=C(O)c1cnn2cccc(Br)c12 [compound 17, 4-Bromopyrazolo[1,5-a]pyridine-3-carboxylic Acid]
IC50 [1, 6]: > 1000 µM | Kd [3, 8]: > 200 µM

CCOC(=O)c1cnn2c(C)ccc(Cl)c12 [compound 12, Ethyl 4-Chloro-7-methylpyrazolo[1,5-a]pyridine-3-carboxylate]
IC50 [1, 7]: > 1000 µM
